The values below are quoted from earlier work in patent US6682761B2, “Water-insoluble drug particle process” (RTP Pharma, Inc., priority 2000, dated 2004).

Structures are written as SMILES.

For this data set the following is noted: in vivo.

As for `CC(C)(Oc1ccc(C(=O)c2ccc(Cl)cc2)cc1)C(=O)O` [Fenofibric acid], the plasma half-life result is listed as “about 20 hours”.
